Experimental data taken from patent US5364848A, “Substituted cephalosporin sulfones as anti-inflammatory and antidegenerative agents” (Merck & Co., Inc., priority 1992, dated 1994).
Where two headings read alike, the source gives them in different places.

Columns and labels:
[1] = target: T1, Human Polymorphonuclear Leukocyte Elastase (Homo sapiens, UniProt P08246); assay: biochemical
T1 sequence (P08246 30-247 limits assumed): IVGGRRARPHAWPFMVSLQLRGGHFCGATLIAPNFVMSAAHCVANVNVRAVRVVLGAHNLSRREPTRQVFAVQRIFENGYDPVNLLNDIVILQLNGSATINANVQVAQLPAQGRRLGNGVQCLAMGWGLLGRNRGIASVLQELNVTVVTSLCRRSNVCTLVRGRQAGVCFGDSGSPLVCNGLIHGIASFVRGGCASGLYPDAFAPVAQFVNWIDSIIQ
Method: Protocol--Enzyme Assays for the Inhibition of Human Polymorphonuclear Leukocyte Elastase Via Hydrolysis of N-t-Boc-alanyl-alanyl-prolylalanine-p-nitroanilide Reagents:
0.05M TES (N-tris[hydroxymethyl]methyl-2-amino-ethanesulfonic acid) Buffer, pH 7.5.
0.2 mMN-t-Boc-alanyl -alanyl -prolyl-alanine-p-nitroanilide (Boc-AAPAN).
To prepare substrate, the solid (m.w. 550) was first dissolved in 10.0 ml DMSO. Buffer at pH 7.5 was then added to a final volume of 100 ml.
Crude extract of human polymorphonuclear leukocytes (PMN) containing elastase activity.
Inhibitors (cephalosporin sulfone esters) to be tested dissolved in DMSO just before use.
To 1.0 ml of 0.2 mM Boc-AAPAN in a cuvette, 0.01-0.1 ml of DMSO with or without inhibitor was added. After mixing, a measurement was taken at 410 mμ to detect any spontaneous hydrolysis due to presence of test compound. 0.05 Milliliters of PMN extract was then added and the ΔOD/min at 410 mμ was measured and recorded. Beckman model 35 spectrophotometer was used.
The elastase activity in the crude PMN extract may vary from one preparation to another. A control of each new batch is run, and the volume added in the assay procedure is adjusted according to activity.

PG synthesis = conditions: background statement; cited from earlier work
[2] = system: elastase both from the pancreas and the PMN; conditions: background statement; cited from earlier work
[3] = Table II, 50% inhibition of the enzyme activity 2 minutes after zero time, crude PMN extract, pH 7.5, 0.2 mM Boc-AAPAN, read-out: ED50 (the source's name) (converted)

Row | IC50 [1, 3] | Molecule | further results
1 | 1390 nM | COC1C(=O)N2C(C(=O)OC(C)(C)C)=C(CSc3nnnn3C)CS(=O)(=O)C12 (stereo not drawn) [R1=OCH3, M=drawing 45, B=OtBu, Q=H] | –
2 | 914 nM | CC(=O)OCC1=C(C(=O)OCc2ccccc2)N2C(=O)C(OC(C)=O)C2S(=O)(=O)C1 (stereo not drawn) [R1=OCOCH3, M=CH2OCOCH3, B=OCH2.phi., Q=H] | –
3 | 385 nM | CC(=O)OCC1=C(C(=O)OC(C)(C)C)N2C(=O)C(OC=O)C2S(=O)(=O)C1 (stereo not drawn) [R1=drawing 36, M=CH2OCOCH3, B=OtBu, Q=H] | –
4 | 288 nM | COC(=O)C1=C(COC(C)=O)CS(=O)(=O)C2C(OC=O)C(=O)N12 (stereo not drawn) [R1=drawing 37, M=CH2OCOCH3, B=OCH3, Q=H] | –
5 | 60.3 nM | CO[C@H]1C(=O)N2C(C(=O)OC(C)(C)C)=C(COC(C)=O)C(CSc3ccccc3)S(=O)(=O)[C@H]12 (stereo partly drawn) [t-Butyl 3-acetyloxymethyl-7α-methoxy-4-phenylthiomethyl-8-oxo-5-thia-1-azabicyclo[4.2.0]oct-2-ene-2-carboxylate-5,5-dioxide] | –

More lines, now with the values behind:

Row | Molecule | IC50 [1, 3] | further results
6 | COC1C(=O)N2C(C(=O)OC(C)(C)C)=C(COC(=O)CN(C)C(=O)OC(C)(C)C)CS(=O)(=O)C12 (stereo not drawn) [R1=OCH3, M=drawing 38, B=OtBu, Q=H] | 198 nM | –
7 | COC1C(=O)N2C(C(=O)OC(C)(C)C)=C(CSc3nc[nH]n3)CS(=O)(=O)C12 (stereo not drawn) [R1=OCH3, M=drawing 39, B=OtBu, Q=H] | 2160 nM | –
8 | CCOC(=S)SCC1=C(C(=O)OC(C)(C)C)N2C(=O)C(OC)C2S(=O)(=O)C1 (stereo not drawn) [R1=OCH3, M=drawing 40, B=OtBu, Q=H] | 1600 nM | –
9 | COC1C(=O)N2C(C(=O)OC(C)(C)C)=C(CSc3nccn3C)CS(=O)(=O)C12 (stereo not drawn) [R1=OCH3, M=drawing 41, B=OtBu, Q=H] | – | IC50 [1]: 2330 nM
10 | COC1C(=O)N2C(C(=O)OC(C)(C)C)=C(CSc3nnc(C)s3)CS(=O)(=O)C12 (stereo not drawn) [R1=OCH3, M=drawing 42, B=OtBu, Q=H] | – | IC50 [1]: 2230 nM
11 | COC1C(=O)N2C(C(=O)OC(C)(C)C)=C(CSc3nc4ccccc4s3)CS(=O)(=O)C12 (stereo not drawn) [R1=OCH3, M=drawing 43, B=OtBu, Q=H] | 6220 nM | –
12 | COC1C(=O)N2C(C(=O)OC(C)(C)C)=C(CSc3cn[nH]n3)CS(=O)(=O)C12 (stereo not drawn) [R1=OCH3, M=drawing 44, B=OtBu, Q=H] | 1440 nM | –
13 | COc1ccc2c(c1)c(CC(=O)O)c(C)n2C(=O)c1ccc(Cl)cc1 [indomethacin] | – | inhibition of PG synthesis (PG synthesis): inhibited
14 | CCCCC1C(=O)N(c2ccccc2)N(c2ccccc2)C1=O [phenylbutazone] | – | inhibition of PG synthesis (PG synthesis): inhibited
15 | α1 -Antitrypsin: a glycoprotein contained in human serum that has a wide inhibitory spectrum | – | inhibitory spectrum [2]: wide inhibitory spectrum covering, among other enzymes, elastase both from the pancreas and the PMN
